From paper PMC12427763 (2025) come the findings set out here.

The test system of test [1] is 5'-biotin c-myb IM (DNA, i motif) TCCTCCTCCTCCTTCTCCTCCTCCTCCGTGACCTCCTCCTCC
As to the kind of experiment: SPR. As to conditions: K+ 100 mM; 20 mM MES pH 5.5, 5% DMSO.

Test [2] has as its system c-myb IM (5'-FAM) (DNA, i motif) TCCTCCTCCTCCTTCTCCTCCTCCTCCGTGACCTCCTCCTCC
As to the kind of experiment: MST. The settings on record: K+ 100 mM, 20 mM MES pH 5.5.

In test [3] the test system is c-myb G4 (5'-FAM) (DNA, G4) GGAGGAGGAGGTCACGGAGGAGGAGGAGAAGGAGGAGGAGGA
As to the kind of experiment: MST. As to conditions: K+ 100 mM; 50 mM Tris-HCl pH 7.4.

Test [4] concerns 5'-biotin c-myb G4 (DNA, G4) GGAGGAGGAGGTCACGGAGGAGGAGGAGAAGGAGGAGGAGGA
Put plainly: SPR. As to conditions: K+ 100 mM; 50 mM Tris-HCl pH 7.4, 5% DMSO.

In test [5] the test system is Ret IM (5'-FAM) (DNA, i motif) CCCCGCCCCGCCCCGCCCCTA
As to the kind of experiment: MST. The settings on record: K+ 100 mM; 20 mM MES pH 5.5.

Test [6] deals with c-Jun G4 (DNA, G4) AAGGGGGGAGGGGGAGGGGGTT
Put plainly: SPR. The settings on record: K+ 100 mM; 50 mM Tris-HCl pH 7.4, 5% DMSO.

In test [7] the test system is c-myb G4 (DNA, G4) GGAGGAGGAGGTCACGGAGGAGGAGGAGAAGGAGGAGGAGGA
Put plainly: TO displacement, fluorescence. The settings on record: K+ 100 mM; 50 mM Tris-HCl pH 7.4; tracer thiazole orange 2 μM.

For test [8], the system named is c-Jun IM (DNA, i motif) TAACCCCCTCCCCCTCCCCCCTTTAAT
As to the kind of experiment: SPR. As to conditions: K+ 100 mM; 20 mM MES pH 5.5, 5% DMSO.

In test [9] the test system is Rb IM (DNA, i motif) GCCGCCCAAAACCCCCCG
As to the kind of experiment: SPR. The settings on record: K+ 100 mM; 20 mM MES pH 5.5, 5% DMSO.

Test [10] relates to Bcl-2 G4 (DNA, G4) GGGCGGGCGCGGGAGGAAGGGGGCGGG
Put plainly: SPR. The settings on record: K+ 100 mM; 50 mM Tris-HCl pH 7.4, 5% DMSO.

Test [11] deals with Hras G4 (DNA, G4) TTGAGGGTGGGTAGGGTGGGTAAA
As to the kind of experiment: SPR. As to conditions: K+ 100 mM; 50 mM Tris-HCl pH 7.4, 5% DMSO.

The subject of test [12] is c-Jun IM (5'-FAM) (DNA, i motif) TAACCCCCTCCCCCTCCCCCCTTTAAT
As to the kind of experiment: MST. The settings on record: K+ 100 mM; 20 mM MES pH 5.5.

In test [13] the test system is HIF-1α IM (5'-FAM) (DNA, i motif) GCCCGAGCGCGCCTCCGCCCTTGCCCGCCCCCTG
As to the kind of experiment: MST. The settings on record: K+ 100 mM; 20 mM MES pH 5.5.

The subject of test [14] is Rb IM (5'-FAM) (DNA, i motif) GCCGCCCAAAACCCCCCG
As to the kind of experiment: MST. As to conditions: K+ 100 mM; 20 mM MES pH 5.5.

For test [15], the system named is Kras G4 (DNA, G4) AGGGCGGTGTGGGAAGAGGGAAGAGGGGGAGG
Put plainly: SPR. The settings on record: K+ 100 mM; 50 mM Tris-HCl pH 7.4, 5% DMSO.

Test [16] deals with Ret IM (DNA, i motif) CCCCGCCCCGCCCCGCCCCTA
As to the kind of experiment: SPR. As to conditions: K+ 100 mM; 20 mM MES pH 5.5, 5% DMSO.

In test [17] the test system is c-Jun G4 (5'-FAM) (DNA, G4) AAGGGGGGAGGGGGAGGGGGTT
As to the kind of experiment: MST. As to conditions: K+ 100 mM; 50 mM Tris-HCl pH 7.4.

Test [18] concerns Bcl-2 IM (DNA, i motif) CAGCCCCGCTCCCGCCCCCTTCCTCCCGCGCCCGCCCCT
As to the kind of experiment: SPR. The settings on record: K+ 100 mM; 20 mM MES pH 5.5, 5% DMSO.

Test [19] deals with Kras G4 (5'-FAM) (DNA, G4) AGGGCGGTGTGGGAAGAGGGAAGAGGGGGAGG
Put plainly: MST. The settings on record: K+ 100 mM; 50 mM Tris-HCl pH 7.4.

Test [20] has as its system c-myb IM (DNA, i motif) TCCTCCTCCTCCTTCTCCTCCTCCTCCGTGACCTCCTCCTCC
Put plainly: TO displacement, fluorescence. As to conditions: K+ 100 mM plus potassium phosphate; BPES pH 5.5, 1 mM EDTA; tracer thiazole orange 2 μM.

For test [21], the system named is Kras IM (5'-FAM) (DNA, i motif) CCTCCCCCTCTTCCCTCTTCCCACACCGCCCT
As to the kind of experiment: MST. As to conditions: K+ 100 mM; 20 mM MES pH 5.5.

Molecules are shown by their SMILES.

For orientation: KD means the equilibrium constant for the complex coming apart. The low end stands for a tighter complex, the high end for a looser complex.

For `O=C1c2cccc3cc(-c4ccc5c(c4)c4ccccc4n5CCN4CCCC4)cc(c23)C(=O)N1CCN1CCCC1`, the KD in [1] was 12.90 µM; in [2] (supplement prints 10.39 ± 2.67), 10.06 ± 2.67 µM; in test [3], 1.11 ± 0.52 µM; in test [4] it was 3.03 µM.
On to `O=C1c2cccc3cc(-c4ccc5c(c4)c4cc(-c6cn(CCN7CCCC7)nn6)ccc4n5CCN4CCCC4)cc(c23)C(=O)N1CCN1CCCC1`, for which the KD in test [5] worked out at 18.00 µM; in test [6] it was 32.90 µM; in test [1] it was 0.58 µM; in test [8], 18.70 µM; in [9] it was 7.70 µM; in test [10], 23.60 µM. Besides, the KD in test [11] worked out at 29.10 µM; in test [12], 34.42 µM; in test [2], 1.04 ± 0.40 µM; in test [13], 14.19 µM; in [3], 1.43 ± 0.64 µM; in test [14] it was 20.93 µM. In addition, the KD is 27.50 µM in test [15]; 1.10 µM in test [4]; 7.71 µM in test [16]; above 50 µM in test [17]; 18.50 µM in test [18]; 19.90 µM in [19]. In addition, in [21], the KD turned out to be 20.59 µM. Moreover, the DC50 in [7] amounted to 1.0 µM; in test [20], 0.8 µM.
Turning to `O=C1c2cccc3c(-n4cc(-c5ccc6c(c5)c5ccccc5n6CCN5CCCC5)nn4)ccc(c23)C(=O)N1CCN1CCCC1`, the KD in test [1] came out at 3.34 µM; in test [2], 2.11 ± 0.71 µM; in [3], 8.53 ± 3.22 µM; in test [4], 5.15 µM.
